Laboratory results reported in patent US20060160906A1, “Polyamine analogs as therapeutic agents for ocular diseases” (priority 2004, published 2006).
Entries after “also recorded” stand apart in the source; their conditions may differ.

Tests used:
[1] = system: retinal function (ERG a- and b-wave amplitudes); assay: Retinal function assessed by electroretinograms (ERG); assay type: in vivo, C57BL/6 mice
Experimental: Adult female C57BL/6 mice were given an intravitreous injection of 2, 4, or 20 μg of CGC-11144 in one eye and an injection of vehicle in the fellow eye and after 3 days ERGs were recorded as previously described (Okoye et al., J. Neuosci. 23: 4164-4172 (2003)). ERGs were also performed after daily periocular injections of 0.2 mg of CGC-11144 for 2 weeks. Mice were dark-adapted for a standardized 12-hour period overnight and ERG recordings were performed using the Espion ERG Diagnosys (Diagnosys LLL, Littleton, Mass.). All manipulations were done with dim red light illumination. Beginning the same time each morning, mice were anesthetized by ip injection of 25 μl/g body weight of Avertin (Aldrich, Milwaukee, Wis.) diluted 1:39 in PBS. Corneas were anesthetized with a drop of 0.5% proparacaine hydrochloride (Alcon Labs) and pupils were dilated with 1% tropicamide. Mice were placed on a pad heated to 39° C. and platinum electrodes were placed on each cornea after application of gonioscopic prism solution (Alcon Labs). The reference electrode was placed subcutaneously in the anterior scalp between the eyes, and the ground electrode was inserted into the tail. Electrode impedance was balanced for each eye pair measured. The head of the mouse was placed in a standardized position in a Ganzfeld bowl illuminator that assured equal illumination of the eyes. Simultaneous recordings from both eyes were made for eleven intensity levels of white light ranging from −3.00 to +1.40 log cd-s/m^2. The Espion ERG machine measures the ERG response six times at each flash-intensity and records the average value.

[2] = system: retinal neovascularization; assay: Oxygen-induced ischemic retinopathy, retinal neovascularization; assay type: in vivo, neonatal C57BL/6 mice; settings: 100 μg CGC-11144, 1 mg CGC-11047, 750 μg CGC-11093
Experimental: Ischemic retinopathy can be produced in neonatal C57BL/6 mice as described (Smith, L. E et al., Invest. Opthalmol. Vis. Sci. 35: 101-111 (1994)) and serves as a model for retinopathy of prematurity (ROP). Post-natal day 7 (P7) mice and their mothers were placed in an airtight incubator and exposed to an atmosphere of 75±3% oxygen for 5 days. Incubator temperature was maintained at 23±2° C. and oxygen was continuously monitored with a PROOX model 110 oxygen controller (Reming Bioinstruments Co., Redfield, N.Y.). At post-natal day 12, mice were placed back in room air and were given a periocular injection of 3 μl containing 100 μg of CGC-11144 (n=4), 1 mg of CGC-11047 (n=4), 750 μg of CGC-11093 (n=4) or vehicle. On post-natal day 17 (P17) the treated and control mice were euthanized and the amount of retinal neovascularization was measured.
For measurement of retinal neovascularization, eyes were removed and fixed in 2% paraformaldehyde in phosphate buffered saline (PBS) for one hour and rinsed twice in 25% sucrose in PBS. Specimens were incubated in 25% sucrose in PBS overnight and embedded in OCT compound (Miles Diagnostics, Elkhart, Ind.),). 10 μm frozen sections were post-fixed for 15 minutes in 0.5% glutaraldehyde in PBS and washed in PBS. Sections were also histochemically stained with biotinylated Griffonia simplicifolia lectin B4 (GSA, Vector Laboratories, Burlingame, Calif.), which selectively binds to vascular cells. Slides were incubated in methanol/H2O2 for 10 minutes at 4° C., washed with 0.05 M Tris-buffered saline, pH 7.6 (TBS), and incubated for 30 minutes in 10% normal porcine serum. Slides were incubated 2 hours at room temperature with biotinylated GSA and after rinsing with 0.05M TBS, they were incubated with avidin coupled to peroxidase (Vector Laboratories, Burlingame, Calif.) for 30 minutes at room temperature. After being washed for 10 minutes with 0.05M TBS, slides were incubated with diaminobenzidine (Research Genetics, Huntsville, Ala.) to give a brown reaction product.
To perform quantitative assessments, 10 μm frozen serial sections were cut from the iris root on one side of the eye to the iris root on the opposite side of the eye and every tenth section was stained with GSA. Retinas were examined with an Axioskop microscope and images were digitized using a 3 CCD color video camera and a frame grabber. Image-Pro Plus software was used to delineate GSA-stained vascular cells above the internal limiting membrane and the total area of staining was measured.
To investigate the effect of these agents on regression of retinal neovascularization, ischemic retinopathy was induced and left untreated until P17, when the baseline amount of retinal neovascularization was measured in one group of mice. From post-natal days 17 to 20 (P17 to P20) the remainder of the mice were given daily periocular injections of 100 μg of CGC-11144 (n=4), 1 mg of CGC-11047 (n=4), 750 μg of CGC-11093 (n=4) or vehicle. On P20 the mice were euthanized and the amount of retinal neovascularization in the treated and control mice was measured as described above.

[3] = Tolerability of intraperitoneal injections in mice; assay type: in vivo
[4] = system: choroidal neovascularization (CNV) at Bruch's membrane rupture sites; assay: Mouse model of laser-induced choroidal neovascularization (rupture of Bruch's membrane), CNV area on choroidal flat mounts; assay type: in vivo, C57BL/6J mice
retinal structure = assay: Retinal structure in hematoxylin and eosin stained retinal sections; assay type: in vivo, mice
Experimental: The remaining 10 mice were given an intravitreous injection of 20 μg of CGC-11144 in one eye and vehicle in the fellow eye on days 7 and 10 and then CNV area was measured at each rupture site at 14 days after laser (n=30 in each group). […] After 3 days, ERGs were performed as described in Methods. […] (In FIGS. 3C-3F, retinal sections were stained with hematoxylin and eosin; FIG. 3C and FIG. 3E, 40×; FIG. 3D and FIG. 3F, 100×.)

[5] = daily periocular 200 μg for 14 days
[6] = intravitreous 2 μg, after 3 days

Which results are given for `CCNCCCCNCCCCNCCCCNCCCCNC/C=C/CNCCCCNCCCCNCCCCNCCCCNCC.Cl.Cl.Cl.Cl.Cl.Cl.Cl.Cl.Cl.Cl` [CGC-11144]?
ERG a- and b-wave amplitudes vs vehicle [1, 5]: normal ERG a- and b-wave amplitudes; also recorded: no difference in mean a-wave or b-wave amplitudes; ERG a-wave amplitudes [1, 6]: only mildly decreased at highest flash intensities; ERG b-wave amplitudes [1, 6]: profoundly reduced at all flash intensities; ERG amplitudes ([1]; intravitreous 10 μg, after 3 days): striking decrease in ERG amplitudes; ERG a- and b-wave amplitudes ([1]; intravitreous 20 μg, after 3 days): dramatically reduced; ERG b-wave amplitudes compared to PBS ([1]; intravitreous 2, 4, or 20 μg, after 3 days, p<0.05): significant decrease in b-wave amplitudes; ERG a-wave amplitudes compared to PBS ([1]; intravitreous 4 or 20 μg, after 3 days, p<0.05): significant decrease in a-wave amplitudes; amount of retinal neovascularization at P20 vs vehicle (regression) ([2]; daily periocular injections P17 to P20): significantly less neovascularization; amount of retinal neovascularization at P17 vs vehicle (suppression) ([2]; periocular injection at P12): significantly less; tolerability ([3]; ip 10 mg/kg twice a week): well tolerated; tolerability ([3]; ip 20 mg/kg twice a week, 2-week treatment period): not well tolerated and several mice died; area of CNV vs day 7 baseline and vehicle fellow eyes (regression) ([4]; daily periocular injections days 7 to 14, 200 μg CGC-11144, 100 μg DFMO, or both): significant reduction in CNV area; also recorded: significantly less; area of CNV vs controls (no injection or vehicle-injected fellow eye) ([4]; intraocular 20 μg on days 0 and 7 after rupture): significantly less CNV than corresponding controls; decrease in area of CNV compared to vehicle-treated or untreated eyes ([4]; intravitreous 20 μg on days 0 and 7 after rupture, measured day 14): approximately 40%; area of established CNV vs vehicle fellow eyes and vs 7 day baseline (regression) ([4]; intravitreous 20 μg on days 7 and 10, measured day 14): significantly smaller in area; size (area) of CNV lesions vs vehicle ([4]; ip 10 mg/kg twice a week, 2 weeks after rupture of Bruch's membrane, 10 mg/kg): statistically significant reductions in the size of CNV lesions; also recorded: small, but significant reductions in CNV; size (area) of CNV lesions vs vehicle ([4]; ip 20 mg/kg twice a week, surviving mice, 20 mg/kg): small statistically significant reductions in CNV lesion size; also recorded: small, but significant reductions in CNV; decrease in CNV area compared to vehicle-treated eyes ([4]; periocular 200 μg 3 times a week, day 14): 40%; area of established CNV vs vehicle fellow eyes and 7 day baseline (regression) ([4]; periocular 200 μg on days 7, 10 and 13, measured day 14): significant decrease in area of CNV; also recorded: significantly smaller; area of CNV vs controls (no injection or vehicle-injected fellow eye) ([4]; periocular 200 μg three times a week, day 14): significantly less CNV than corresponding controls; amount of CNV on day 14 vs vehicle (suppression) ([4]; single periocular injection at time of rupture, 200 μg CGC-11144, 2 mg CGC-11047, 1.5 mg CGC-11093): significantly reduced the amount of CNV; amount of CNV vs vehicle (duration of effect) ([4]; single periocular injection one week prior to rupture, 200 μg CGC-11144, 2 mg CGC-11047, 1.5 mg CGC-11093): significant reduction of the amount of CNV; amount of CNV vs vehicle (duration of effect) ([4]; single periocular injection two weeks prior to rupture, 200 μg CGC-11144, 2 mg CGC-11047, 1.5 mg CGC-11093): no significant effect; appearance of retinas (retinal structure; [5]): normal-appearing retinas; retinal structure / morphology (retinal structure; intravitreous 20 μg): markedly disrupted; also recorded: substantial disruption of the morphology of the retina
